One experiment concerns the target Pim1 kinase (Homo sapiens (Human), UniProt P11309). Kind of experiment: Pim1 ATP depletion assay. In kind it is biochemical. The note with it: 20 μM ATP, 40 μM BAD peptide, 2.5 nM PIM1. The procedure: (§1) The activity of PIM1 is measured using a luciferase-luciferin based ATP detection reagent to quantify ATP depletion resulting from kinase-catalyzed phosphoryl transfer to a peptide substrate. Compounds to be tested are dissolved in 100% DMSO and directly distributed into white 384-well plates at 0.5 μl per well. […] After 15 minutes, 10 μl of 40 μM ATP in assay buffer is added. Final assay concentrations are 2.5 nM PIM1, 20 μM ATP, 40 μM BAD peptide and 2.5% DMSO. The reaction is performed until approximately 50% of the ATP is depleted, then stopped with the addition of 20 μl KinaseGlo Plus (Promega Corporation) solution. The stopped reaction is incubated for 10 minutes and the remaining ATP detected via luminescence on the Victor2 (Perkin Elmer).

In the next experiment the target is Pim2 kinase (Homo sapiens (Human), UniProt Q9P1W9). The experiment can be described thus: Pim2 ATP depletion assay. Type of experiment: biochemical. The settings on record: 4 μM ATP, 10 μM BAD peptide, 5 nM PIM2. Here is the method: as §1, with “of PIM2” for “of PIM1”, “0.5 piper” for “0.5 μl per”, “of 8” for “of 40”, “are 5” for “are 2.5”, “nM PIM2, 4” for “nM PIM1, 20”, “ATP, 10” for “ATP, 40”

The target in another experiment is Pim3 kinase (Homo sapiens (Human), UniProt Q86V86). Kind of experiment: Pim3 ATP depletion assay. The note with it: 40 μM ATP, 100 μM BAD peptide. Type of experiment: biochemical. Here is the method:
The activity of PIM3 is measured using a luciferase-luciferin based ATP detection reagent to quantify ATP depletion resulting from kinase-catalyzed phosphoryl transfer to a peptide substrate. Compounds to be tested are dissolved in 100% DMSO and directly distributed into white 384-well plates at 0.5 piper well. […] After 15 minutes, 10 μl of 80 μM ATP in assay buffer is added. Final assay concentrations are 5 nM PIM1, 40 μM ATP, 100 μM BAD peptide and 2.5% DMSO. The reaction is performed until approximately 50% of the ATP is depleted, then stopped by the addition of 20 μl KinaseGlo Plus (Promega Corporation) solution. The stopped reaction is incubated for 10 minutes and the remaining ATP detected via luminescence on the Victor2 (Perkin Elmer).

For experiment [1], the system named is KMS11 (human myeloma cell line). Kind of experiment: Cell Proliferation Assay. Type of experiment: cell-based. The note with it: KMS-11, 72 h, KMS11 cells, 3 days, Cell Titer-Glow. The procedure: KMS11 (human myeloma cell line), were cultured in IMDM supplemented with 10% FBS, sodium pyruvate and antibiotics. Cells were plated in the same medium at a density of 2000 cells per well into 96 well tissue culture plates, with outside wells vacant, on the day of assay. MM1.s (human myeloma cell line), were cultured in RPMI1640 supplemented with 10% FBS, sodium pyruvate and antibiotics. Cells were plated in the same medium at a density of 5000 cells per well into 96 well tissue culture plates, with outside wells vacant, on the day of assay.
Test compounds supplied in DMSO were diluted into DMSO at 500 times the desired final concentrations before dilution into culture media to 2 times final concentrations. Equal volumes of 2× compounds were added to the cells in 96 well plates and incubated at 37° C. for 3 days.
After 3 days plates were equilibrated to room temperature and equal volume of Cell Titer-Glow Reagent (Promega) was added to the culture wells. The plates were agitated briefly and luminescent signal was measured with luminometer.
Using the procedures for Cell Proliferation Assay described above, the EC50 concentration of compounds of the previous examples were determined in KMS11 cells as shown in the following table.
Background: ATP-based viability assays read luminescence as a measure of living cells.

Chain of Pim2 kinase (Q9P1W9 whole entry): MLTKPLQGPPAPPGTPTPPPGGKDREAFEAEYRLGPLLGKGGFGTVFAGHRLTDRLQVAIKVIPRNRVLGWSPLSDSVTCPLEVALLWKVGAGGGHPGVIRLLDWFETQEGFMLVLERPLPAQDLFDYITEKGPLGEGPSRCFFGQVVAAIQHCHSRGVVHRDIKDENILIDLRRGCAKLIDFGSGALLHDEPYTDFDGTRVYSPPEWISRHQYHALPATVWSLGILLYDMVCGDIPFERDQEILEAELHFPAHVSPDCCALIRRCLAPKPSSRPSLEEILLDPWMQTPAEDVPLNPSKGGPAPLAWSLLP
Chain of Pim1 kinase (P11309 whole entry): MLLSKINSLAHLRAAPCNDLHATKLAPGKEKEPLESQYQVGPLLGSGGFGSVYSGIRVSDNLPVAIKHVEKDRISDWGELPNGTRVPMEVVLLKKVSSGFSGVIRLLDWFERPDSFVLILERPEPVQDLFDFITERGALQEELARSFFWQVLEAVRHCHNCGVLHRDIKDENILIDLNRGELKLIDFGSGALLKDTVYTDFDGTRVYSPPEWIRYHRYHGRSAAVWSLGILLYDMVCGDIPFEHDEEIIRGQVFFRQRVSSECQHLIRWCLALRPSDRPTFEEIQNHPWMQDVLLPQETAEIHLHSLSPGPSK

`Nc1sc(-c2c(F)cccc2F)nc1C(=O)Nc1cnccc1[C@@H]1CC[C@H](O)[C@H](N)C1` (stereo in doubt) [Example 38, 5-amino-N-(4-(3-amino-4-hydroxycyclohexyl)pyridin-3-yl)-2-(2,6-difluorophenyl)thiazole-4-carboxamide]: the IC50 at Pim1 kinase is 1 nM; at Pim2 kinase it was 4 nM; at Pim3 kinase, 3 nM. The compound further registered an EC50 in experiment [1] of 1890 nM.

With `N[C@H]1CCCN(c2ccncc2NC(=O)c2csc(-c3c(F)cccc3F)n2)C1` [Example 1, (S)-N-(4-(3-aminopiperidin-1-yl)pyridin-3-yl)-2-(2,6-difluorophenyl)thiazole-4-carboxamide], it took 1170 nM to reach a half-maximal effect in experiment [1] (EC50).

As to `N[C@@H]1CN(c2ccncc2NC(=O)c2csc(-c3c(F)cccc3F)n2)CC[C@H]1O` [Example 2, N-(4-((3R,4R)-3-amino-4-hydroxypiperidin-1-yl)pyridin-3-yl)-2-(2,6-difluorophenyl)thiazole-4-carboxamide], the IC50 at Pim1 kinase was found to be 2 nM; on Pim2 kinase, 11 nM; at Pim3 kinase, 4 nM. Further, the midpoint of the response in experiment [1], the EC50, lay at 1570 nM.

For the compound `N[C@@H]1CN(c2ccncc2NC(=O)c2csc(-c3c(F)cccc3F)n2)CC[C@@H]1O` [Example 6, N-(4-((3R,4S)-3-amino-4-hydroxypiperidin-1-yl)pyridin-3-yl)-2-(2,6-difluorophenyl)thiazole-4-carboxamide], the figures for the IC50 at Pim1 kinase, at Pim2 kinase and at Pim3 kinase were 1 nM, 3 nM and 1 nM, respectively. The EC50 in experiment [1] came to 410 nM.

As for `CO[C@@H]1C[C@H](N)CN(c2ccncc2NC(=O)c2csc(-c3c(F)cccc3F)n2)C1` [Example 8, N-(4-((3S,5R)-3-amino-5-methoxypiperidin-1-yl)pyridin-3-yl)-2-(2,6-difluorophenyl)thiazole-4-carboxamide], the IC50 at Pim1 kinase turned out to be 21 nM; on Pim2 kinase it was 46 nM; against Pim3 kinase, 35 nM. Besides, a half-maximal effect in experiment [1] (EC50) was put at 4700 nM.

Turning to `N[C@H]1C[C@@H](F)CN(c2ccncc2NC(=O)c2csc(-c3c(F)cccc3F)n2)C1` [Example 11, N-(4-((3S,5R)-3-amino-5-fluoropiperidin-1-yl)pyridin-3-yl)-2-(2,6-difluorophenyl)thiazole-4-carboxamide], the IC50 on Pim1 kinase is 4 nM; on Pim2 kinase, 55 nM; at Pim3 kinase, 8 nM. This compound came in with an EC50 in experiment [1] of 6100 nM.

As for `CC1CC(N)CN(c2ccncc2NC(=O)c2csc(-c3c(F)cccc3F)n2)C1` (stereo not shown) [Example 14, N-(4-(3-amino-5-methylpiperidin-1-yl)pyridin-3-yl)-2-(2,6-difluorophenyl)thiazole-4-carboxamide], the EC50 in experiment [1] was found to be 830 nM.

For the compound `NC1CC(C(F)(F)F)CN(c2ccncc2NC(=O)c2csc(-c3c(F)cccc3F)n2)C1` (stereo not shown) [Example 15, N-(4-(3-amino-5-(trifluoromethyl)piperidin-1-yl)pyridin-3-yl)-2-(2,6-difluorophenyl)thiazole-4-carboxamide], the IC50 against Pim1 kinase stood at 1 nM; against Pim2 kinase, 3 nM; on Pim3 kinase it was 4 nM. Besides, the response in experiment [1] was half-maximal at 310 nM (EC50).

Take `NC1CC(CF)CN(c2ccncc2NC(=O)c2csc(-c3c(F)cccc3F)n2)C1` (stereo not shown) [Example 16, N-(4-(3-amino-5-(fluoromethyl)piperidin-1-yl)pyridin-3-yl)-2-(2,6-difluorophenyl)thiazole-4-carboxamide]: the results for the IC50 on Pim1 kinase, on Pim2 kinase and on Pim3 kinase were 1 nM, 3 nM and 4 nM, respectively. In addition, the EC50 in experiment [1] is 2380 nM.

As for `CC1CCN(c2ccncc2NC(=O)c2csc(-c3c(F)cccc3F)n2)CC1N` (stereo not shown) [Example 19, N-(4-(3-amino-4-methylpiperidin-1-yl)pyridin-3-yl)-2-(2,6-difluorophenyl)thiazole-4-carboxamide], the IC50 turned out to be 1 nM at Pim1 kinase, 8 nM against Pim2 kinase and 5 nM against Pim3 kinase. This compound displayed an EC50 in experiment [1] of 930 nM.

`CCO[C@@H]1C[C@H](N)CN(c2ccncc2NC(=O)c2csc(-c3c(F)cccc3F)n2)C1` [Example 23, N-(4-((3S,5R)-3-amino-5-ethoxypiperidin-1-yl)pyridin-3-yl)-2-(2,6-difluorophenyl)thiazole-4-carboxamide]: the IC50 was 56 nM against Pim1 kinase, 85 nM against Pim2 kinase and 86 nM at Pim3 kinase. For the same compound, the EC50 in experiment [1] was 6540 nM.

Consider `C[C@@H]1C[C@H](N)CN(c2ccncc2NC(=O)c2csc(-c3c(F)cccc3F)n2)C1` [Example 28, N-(4-((3S,5R)-3-amino-5-methylpiperidin-1-yl)pyridin-3-yl)-2-(2,6-difluoropheenyl)thiazole-4-carboxamide], for which, in experiment [1], the EC50 amounted to 400 nM.

`Nc1sc(-c2c(F)cccc2F)nc1C(=O)Nc1cnccc1N1CCC[C@H](N)C1` [Example 29, (S)-5-amino-N-(4-(3-aminopiperidin-1-yl)pyridin-3-yl)-2-(2,6-difluorophenyl)thiazole-4-carboxamide] gave an EC50 in experiment [1] of 40 nM.

For the compound `Nc1sc(-c2c(F)cccc2F)nc1C(=O)Nc1cnccc1[C@@H]1CCC[C@H](N)C1` [Example 33, 5-amino-N-(4-((1R,3S)-3-aminocyclohexyl)pyridin-3-yl)-2-(2,6-difluorophenyl)thiazole-4-carboxamide], the IC50 at Pim1 kinase stood at 1 nM. In experiment [1], this compound came in with an EC50 of 430 nM.

On to `N[C@H]1CCC[C@@H](c2ccncc2NC(=O)c2csc(-c3c(F)cccc3F)n2)C1` [Example 34, N-(4-((1R,3S)-3-aminocyclohexyl)pyridin-3-yl)-2-(2,6-difluorophenyl)thiazole-4-carboxamide], for which the EC50 in experiment [1] was determined as 5020 nM.

On to `C[C@@H]1C[C@H](N)C[C@H](c2ccncc2NC(=O)c2csc(-c3c(F)cccc3F)n2)C1` [Example 45, N-(4-((1R,3S,5S)-3-amino-5-methylcyclohexyl)pyridin-3-yl)-2-(2,6-difluorophenyl)thhiazole-4-carboxamide], for which the IC50 on Pim1 kinase is 1 nM; against Pim3 kinase, 3 nM. The same compound registered an EC50 in experiment [1] of 920 nM.

Take `N[C@H]1CCCN(c2ccncc2NC(=O)c2csc(-c3ccccc3)n2)C1` [Example 48, (S)-N-(4-(3-aminopiperidin-1-yl)pyridin-3-yl)-2-phenylthiazole-4-carboxamide]: the values for the IC50 on Pim1 kinase, on Pim2 kinase and against Pim3 kinase were 2 nM, 17.7 nM and 2.3 nM, respectively.

On to `N[C@H]1CCCN(c2ccncc2NC(=O)c2csc(-c3ccccc3F)n2)C1` [Example 49, (S)-N-(4-(3-aminopiperidin-1-yl)pyridin-3-yl)-2-(2-fluorophenyl)thiazole-4-carboxamide], for which the values for the IC50 against Pim1 kinase, against Pim2 kinase and on Pim3 kinase were 1.9 nM, 9.9 nM and 4.2 nM, respectively.

`CC(C)NC(=O)c1ccc(F)c(-c2nc(C(=O)Nc3cnccc3N3CCC[C@H](N)C3)cs2)c1` [Example 50, (S)-N-(4-(3-aminopiperidin-1-yl)pyridin-3-yl)-2-(2-fluoro-5-(isopropylcarbamoyl)phenyl)thiazole-4-carboxamide]: the IC50 was 3.2 nM at Pim1 kinase, 83.8 nM against Pim2 kinase and 8.3 nM at Pim3 kinase.

As for `CC(C)Oc1ccc(F)c(-c2nc(C(=O)Nc3cnccc3[C@@H]3C[C@H](C)C[C@H](N)C3)cs2)c1F` [Example 53], the IC50 came out at 1 nM at Pim1 kinase, 20 nM on Pim2 kinase and 3 nM on Pim3 kinase.

What is called IC50 is the point on the concentration scale where inhibition reaches its midpoint. A high value points to weaker potency in that assay. Broadly, the EC50 is the concentration that produces a half-maximal response. High values mean a less potent agent, low ones a more potent agent.

For the origin of these results see patent US8829193B2, “PIM kinase inhibitors and methods of their use” (Novartis AG, priority 2008, dated 2014).
